The values that follow come from patent US11702404B2, “GLP-1R modulating compounds” (priority 2019, dated 2023).

One data set addresses GLP-1R (Homo sapiens, UniProt P43220). In words: GLP-1R activation: cAMP increase in CHO cells stably expressing GLP-1R. It is filed as cell-based. Particulars: read-out: EC50.
Data set [1] is described as follows: Microsomal stability, human liver microsomes (predicted hepatic clearance). Particulars: predicted from in vitro microsomal stability data.
Where [2] appears, read: cAMP increase, CHO cells stably expressing GLP-1R, 10 point dose response, 30 minutes incubation.

Read-outs that look alike come from different tables or passages of the source.

Chain of GLP-1R (P43220 24-463): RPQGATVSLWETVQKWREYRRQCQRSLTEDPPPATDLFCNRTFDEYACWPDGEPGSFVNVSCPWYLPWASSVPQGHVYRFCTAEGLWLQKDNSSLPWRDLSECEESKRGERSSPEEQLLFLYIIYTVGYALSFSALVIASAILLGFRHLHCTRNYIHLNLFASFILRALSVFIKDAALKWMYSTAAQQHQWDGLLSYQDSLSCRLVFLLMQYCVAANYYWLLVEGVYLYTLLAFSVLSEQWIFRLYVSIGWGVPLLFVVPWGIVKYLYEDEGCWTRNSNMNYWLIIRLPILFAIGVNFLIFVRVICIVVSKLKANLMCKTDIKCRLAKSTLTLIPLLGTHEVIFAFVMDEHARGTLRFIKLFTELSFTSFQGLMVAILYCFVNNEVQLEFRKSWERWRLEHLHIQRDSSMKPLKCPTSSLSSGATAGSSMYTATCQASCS

The term EC50 denotes the concentration giving half of the maximal effect. Turning to `COCCn1c(Cc2ccc(-c3cccc(OCc4c(F)cc(Cl)cc4OC)n3)cc2F)nc2ccc(C(=O)O)cc21` [Example 435, 2-(4-(6-((4-chloro-2-fluoro-6-methoxybenzyl)oxy)pyridin-2-yl)-2-fluorobenzyl)-1-(2-methoxyethyl)-1H-benzo[d]imidazole-6-carboxylic acid], the 50% effective concentration (EC50) on GLP-1R (setting [2]) amounted to 8.7 nM. The “Predicted Hepatic Clearance (Pred. Cl.)” value in data set [1] is 6.17 mL/min/kg.

As to `COCCn1c(Cc2cc(F)c(-c3cccc(OCc4ccc(C#N)cc4OC)n3)cc2F)nc2ccc(C(=O)O)cc21` [Example 436, 2-(4-(6-((4-cyano-2-methoxybenzyl)oxy)pyridin-2-yl)-2,5-difluorobenzyl)-1-(2-methoxyethyl)-1H-benzo[d]imidazole-6-carboxylic acid], the concentration giving a half-maximal response (EC50) at GLP-1R (setting [2]) is 0.44 nM. Further, the “Predicted Hepatic Clearance (Pred. Cl.)” value in data set [1] is less than 1.83 mL/min/kg.

With `COCCn1c(Cn2c(C)cc(-c3cccc(OCc4ccc(C#N)cc4F)n3)cc2=O)nc2ccc(C(=O)O)cc21` [Example 437, 2-((6-((4-cyano-2-fluorobenzyl)oxy)-6′-methyl-2′-oxo-[2,4′-bipyridin]-1′(2′H)-yl)methyl)-1-(2-methoxyethyl)-1H-benzo[d]imidazole-6-carboxylic acid], on GLP-1R (setting [2]), the EC50 was determined as 69.8 nM. The “Predicted Hepatic Clearance (Pred. Cl.)” value in data set [1] was 2.67 mL/min/kg.

Turning to `COCCn1c(Cc2ccc(-c3cccc(OCc4ccc(C#N)cc4F)n3)cc2C#CC2CCOCC2)nc2ccc(C(=O)O)cc21` [Example 438, 2-(4-(6-((4-cyano-2-fluorobenzyl)oxy)pyridin-2-yl)-2-((tetrahydro-2H-pyran-4-yl)ethynyl)benzyl)-1-(2-methoxyethyl)-1H-benzo[d]imidazole-6-carboxylic], the EC50 on GLP-1R (setting [2]) was found to be 64.7 nM. Moreover, the “Predicted Hepatic Clearance (Pred. Cl.)” value in data set [1] was 18.7 mL/min/kg.

As to `N#Cc1ccc(COc2cccc(-c3cc(F)c(Cc4nc5ccc(C(=O)O)nc5n4CC4(CF)CC4)cc3F)n2)c(F)c1` [Example 440, 2-(4-(6-((4-cyano-2-fluorobenzyl)oxy)pyridin-2-yl)-2,5-difluorobenzyl)-3-((1-(fluoromethyl)cyclopropyl)methyl)-3H-imidazo[4,5-b]pyridine-5-carboxylic acid], the half-maximal effective concentration (EC50) at GLP-1R (setting [2]) was determined as 2.12 nM. Moreover, in data set [1], the “Predicted Hepatic Clearance (Pred. Cl.)” value is 5 mL/min/kg.

As to `N#CCC1(Cn2c(Cc3cc(F)c(-c4ccnc(OCc5ccc(C#N)cc5F)n4)cc3F)nc3ccc(C(=O)O)cc32)CC1` [Example 441, 2-(4-(2-((4-cyano-2-fluorobenzyl)oxy)pyrimidin-4-yl)-2,5-difluorobenzyl)-1-((1-(cyanomethyl)cyclopropyl)methyl)-1H-benzo[d]imidazole-6-carboxylic acid], at GLP-1R (setting [2]), the EC50 came out at 0.21 nM. In data set [1], the “Predicted Hepatic Clearance (Pred. Cl.)” value is 3 mL/min/kg.

For `N#CCC1(Cn2c(Cc3cc(F)c(-c4ccnc(OCc5ccc(Cl)cc5F)n4)cc3F)nc3ccc(C(=O)O)cc32)CC1` [Example 442, 2-(4-(2-((4-chloro-2-fluorobenzyl)oxy)pyrimidin-4-yl)-2,5-difluorobenzyl)-1-((1-(cyanomethyl)cyclopropyl)methyl)-1H-benzo[d]imidazole-6-carboxylic acid], on GLP-1R (setting [2]), the concentration giving a half-maximal response (EC50) came out at 0.14 nM. In addition, the “Predicted Hepatic Clearance (Pred. Cl.)” value in data set [1] is 3.67 mL/min/kg.

Regarding `COc1cc(Cl)ccc1COc1cccc(-c2cc(F)c(Cc3nc4ccc(C(=O)O)cc4n3CC3(CC#N)CC3)cc2F)n1` [Example 443, 2-(4-(6-((4-chloro-2-methoxybenzyl)oxy)pyridin-2-yl)-2,5-difluorobenzyl)-1-((1-(cyanomethyl)cyclopropyl)methyl)-1H-benzo[d]imidazole-6-carboxylic acid], the EC50 at GLP-1R (setting [2]) came to 0.15 nM. In data set [1], the “Predicted Hepatic Clearance (Pred. Cl.)” value is 11 mL/min/kg.

With `N#Cc1ccc(COc2cccc(-c3cc(F)c(Cc4nc5ccc(C(=O)O)cc5n4C[C@@H]4CCO4)cc3F)n2)c(F)c1` [Example 444, (S)-2-(4-(6-((4-cyano-2-fluorobenzyl)oxy)pyridin-2-yl)-2,5-difluorobenzyl)-1-(oxetan-2-ylmethyl)-1H-benzo[d]imidazole-6-carboxylic acid], the EC50 on GLP-1R (setting [2]) is 0.25 nM. For the same compound, in data set [1], the “Predicted Hepatic Clearance (Pred. Cl.)” value is 4.13 mL/min/kg.

As for `COc1cc(Cl)ccc1COc1cccc(-c2cc(F)c(Cc3nc4ccc(C(=O)O)cc4n3CC3(CF)CC3)cc2F)n1` [Example 445, 2-(4-(6-((4-chloro-2-methoxybenzyl)oxy)pyridin-2-yl)-2,5-difluorobenzyl)-1-((1-(fluoromethyl)cyclopropyl)methyl)-1H-benzo[d]imidazole-6-carboxylic acid], the concentration for a half-maximal effect (EC50) at GLP-1R (setting [2]) worked out at 0.5 nM. Also, the “Predicted Hepatic Clearance (Pred. Cl.)” value in data set [1] is 9.67 mL/min/kg.

In the case of `N#Cc1ccc(COc2cccc(-c3cc(F)c(Cc4nc5c(F)cc(C(=O)O)cc5n4CC4(CF)CC4)cc3F)n2)c(F)c1` [Example 448, 2-(4-(6-((4-cyano-2-fluorobenzyl)oxy)pyridin-2-yl)-2,5-difluorobenzyl)-4-fluoro-1-((1-(fluoromethyl)cyclopropyl)methyl)-1H-benzo[d]imidazole-6-carboxylic], on GLP-1R (setting [2]), the EC50 was determined as 1.23 nM. For the same compound, the “Predicted Hepatic Clearance (Pred. Cl.)” value in data set [1] was less than 1.83 mL/min/kg.

As to `N#Cc1ccc(COc2nc(-c3cc(F)c(Cc4nc5ccc(C(=O)O)cc5n4C[C@@H]4CCO4)cc3F)ncc2F)c(F)c1` [Example 449, (S)-2-(4-(4-((4-cyano-2-fluorobenzyl)oxy)-5-fluoropyrimidin-2-yl)-2,5-difluorobenzyl)-1-(oxetan-2-ylmethyl)-1H-benzo[d]imidazole-6-carboxylic acid], the EC50 on GLP-1R (setting [2]) was 0.17 nM. Moreover, the “Predicted Hepatic Clearance (Pred. Cl.)” value in data set [1] is 4.33 mL/min/kg.

In the case of `N#Cc1ccc(COc2nc(-c3cc(F)c(Cc4nc5ccc(C(=O)O)cc5n4C[C@@H]4CCO4)cc3F)ccc2F)c(F)c1` [Example 450, (S)-2-(4-(6-((4-cyano-2-fluorobenzyl)oxy)-5-fluoropyridin-2-yl)-2,5-difluorobenzyl)-1-(oxetan-2-ylmethyl)-1H-benzo[d]imidazole-6-carboxylic acid], the half-maximal effective concentration (EC50) on GLP-1R (setting [2]) was determined as 0.77 nM. Besides, the “Predicted Hepatic Clearance (Pred. Cl.)” value in data set [1] was less than 1.83 mL/min/kg.

Regarding `N#Cc1ccc(COc2ccnc(-c3cc(F)c(Cc4nc5ccc(C(=O)O)cc5n4C[C@@H]4CCO4)cc3F)n2)c(F)c1` [Example 451, (S)-2-(4-(4-((4-cyano-2-fluorobenzyl)oxy)pyrimidin-2-yl)-2,5-difluorobenzyl)-1-(oxetan-2-ylmethyl)-1H-benzo[d]imidazole-6-carboxylic acid], the EC50 on GLP-1R (setting [2]) stood at 0.16 nM. For the same compound, in data set [1], the “Predicted Hepatic Clearance (Pred. Cl.)” value is 4.83 mL/min/kg.

As for `CCn1cncc1Cn1c(Cc2ccc(-c3cccc(OCc4ccc(C#N)cc4F)n3)c(F)c2)nc2c(F)cc(C(=O)O)cc21` [Example 452, 2-(4-(6-((4-cyano-2-fluorobenzyl)oxy)pyridin-2-yl)-3-fluorobenzyl)-1-((1-ethyl-1H-imidazol-5-yl)methyl)-4-fluoro-1H-benzo[d]imidazole-6-carboxylic acid], the EC50 at GLP-1R (setting [2]) came to 0.16 nM. In addition, in data set [1], the “Predicted Hepatic Clearance (Pred. Cl.)” value was 7.17 mL/min/kg.

Regarding `CC(=O)N1CCC[C@H]1Cn1c(Cc2ccc(-c3cccc(OCc4ccc(C#N)cc4F)n3)cc2F)nc2ccc(C(=O)O)cc21` [Example 453, (S)-1-((1-acetylpyrrolidin-2-yl)methyl)-2-(4-(6-((4-cyano-2-fluorobenzyl)oxy)pyridin-2-yl)-2-fluorobenzyl)-1H-benzo[d]imidazole-6-carboxylic acid], the concentration giving a half-maximal response (EC50) on GLP-1R came out at 40.3 nM. In addition, the “Predicted Hepatic Clearance (Pred. Cl.)” value in data set [1] was 3.83 mL/min/kg.

`N#Cc1ccc(COc2cccc(-c3ccc(Cc4nc5ccc(C(=O)O)cc5n4Cc4cscn4)c(F)c3)n2)c(F)c1` [Example 454, 2-(4-(6-((4-cyano-2-fluorobenzyl)oxy)pyridin-2-yl)-2-fluorobenzyl)-1-(thiazol-4-ylmethyl)-1H-benzo[d]imidazole-6-carboxylic acid]: at GLP-1R (setting [2]), the concentration for a half-maximal effect (EC50) came out at 5.53 nM. Moreover, the “Predicted Hepatic Clearance (Pred. Cl.)” value in data set [1] was 4.67 mL/min/kg.

In the case of `N#Cc1ccc(COc2cccc(-c3ccc(Cc4nc5c(F)cc(C(=O)O)cc5n4C[C@@H]4CCO4)c(F)c3)n2)c(F)c1` [Example 455, (S)-2-(4-(6-((4-cyano-2-fluorobenzyl)oxy)pyridin-2-yl)-2-fluorobenzyl)-4-fluoro-1-(oxetan-2-ylmethyl)-1H-benzo[d]imidazole-6-carboxylic acid], at GLP-1R (setting [2]), the EC50 is 1.87 nM. In addition, the “Predicted Hepatic Clearance (Pred. Cl.)” value in data set [1] was less than 1.83 mL/min/kg.

Consider `N#Cc1ccc(COc2cccc(-c3ccc(Cc4nc5ccc(C(=O)O)cc5n4CC4(n5ccnn5)CC4)cc3F)n2)c(F)c1` [Example 457, 1-((1-(1H-1,2,3-triazol-1-yl)cyclopropyl)methyl)-2-(4-(6-((4-cyano-2-fluorobenzyl)oxy)pyridin-2-yl)-3-fluorobenzyl)-1H-benzo[d]imidazole-6-carboxylic acid], for which, at GLP-1R (setting [2]), the EC50 is 1.4 nM. Besides, the “Predicted Hepatic Clearance (Pred. Cl.)” value in data set [1] is 7.83 mL/min/kg.

`COCCn1c(Cc2ccc(-c3cccc(OCc4ccc(C(F)(F)F)nc4OC)n3)cc2F)nc2ccc(C(=O)O)cc21` [Example 458, 2-[[2-fluoro-4-[6-[[2-methoxy-6-(trifluoromethyl)-3-pyridyl]methoxy]-2-pyridyl]phenyl]methyl]-3-(2-methoxyethyl)benzimidazole-5-carboxylic acid]: on GLP-1R (setting [2]), the EC50 turned out to be 2.78 nM. Besides, in data set [1], the “Predicted Hepatic Clearance (Pred. Cl.)” value is less than 1.83 mL/min/kg.

For `COCCn1c(Cc2ccc(-c3cccc(OCc4ccc(C(F)(F)F)cc4OC)n3)cc2F)nc2ccc(C(=O)O)cc21` [Example 459, 2-(2-fluoro-4-(6-((2-methoxy-4-(trifluoromethyl)benzyl)oxy)pyridin-2-yl)benzyl)-1-(2-methoxyethyl)-1H-benzo[d]imidazole-6-carboxylic acid], the EC50 at GLP-1R (setting [2]) was found to be 2.35 nM. Also, in data set [1], the “Predicted Hepatic Clearance (Pred. Cl.)” value is less than 1.83 mL/min/kg.

With `COCCn1c(Cc2ccc(-c3cccc(OCc4ccc(C5(F)COC5)cc4)n3)cc2F)nc2ccc(C(=O)O)cc21` [Example 460, 2-(2-fluoro-4-(6-((4-(3-fluorooxetan-3-yl)benzyl)oxy)pyridin-2-yl)benzyl)-1-(2-methoxyethyl)-1H-benzo[d]imidazole-6-carboxylic acid], the EC50 on GLP-1R (setting [2]) is 15.7 nM. Further, the “Predicted Hepatic Clearance (Pred. Cl.)” value in data set [1] was 12.5 mL/min/kg.
